Data on 8 compounds can be found in PubChem BioAssay (NCI).

Common to all, as to assay: growth of human tumour cells (NCI), 48 h
In experiment [1] the test system is BT-549 breast.
Experiment [2] relates to DU-145 prostate.
Experiment [3] has as its system HCT-15 colon.
The subject of experiment [4] is HL-60(TB) leukemia.
Experiment [5] concerns HOP-62 NSCLC.
The subject of experiment [6] is HT29 colon.
The subject of experiment [7] is NCI/ADR-RES ovarian.
Experiment [8] deals with OVCAR-3 ovarian.
The subject of experiment [9] is T-47D breast.
The test system of experiment [10] is U251 CNS.

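Five concentrations, 48 hours, 96-well plates. The concentration for 50% growth inhibition is given as GI50. TGI: concentration producing complete growth inhibition.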 Some results are limits rather than exact numbers.

Regarding `CCCCC#CC1=C(Br)C(=O)OC1`, the GI50 in [1] is 1.8 µM; in experiment [2], 0.752 µM; in experiment [3], 1.02 µM; in [4], 0.249 µM; in experiment [5], 7.13 µM; in experiment [6] it was 2.85 µM. Besides, the GI50 is 2.04 µM in [7], 0.453 µM in experiment [8], 5.79 µM in [9] and 1.59 µM in experiment [10]. Further, the TGI in experiment [1] was 5.91 µM; in [2] it was 2.34 µM; in experiment [4], > 100 µM; in [5], 20.8 µM; in experiment [6] it was > 22.1 µM; in [7], 5.9 µM. The figures for the TGI in [8], in experiment [9] and in experiment [10] were 2.27 µM, > 31.6 µM and > 20.1 µM, respectively.

As to `NC(=O)/C=C/C(=O)c1c(Cl)cccc1Cl`, the GI50 was 1.59 µM in experiment [1]; 1.65 µM in experiment [2]; 0.679 µM in [4]; 2.63 µM in [5]; 1.55 µM in experiment [6]; 1.77 µM in experiment [7]. The GI50 in [8] is 0.533 µM; in experiment [9] it was 0.191 µM; in experiment [10], 1.36 µM. Also, the TGI in experiment [1] is 3.03 µM; in experiment [2], 3.04 µM; in experiment [3] it was 2.3 µM; in [4] it was 4.05 µM; in [6], > 100 µM; in [7] it was 3.44 µM. The TGI in experiment [8] is 1.72 µM; in experiment [9], 0.408 µM; in experiment [10] it was 2.67 µM.

Regarding `Cc1cc(Cl)cc(OCCn2cc(F)cn2)c1-c1nc(N)nc2c1CN(C(=O)NCC(C)(F)F)C2`, the GI50 is 50.3 µM in experiment [1]; 0.0652 µM in [2]; 0.386 µM in [3]; 0.0407 µM in experiment [4]; 0.622 µM in [5]; 0.0355 µM in [6]. Further, the GI50 in [7] was 53.1 µM; in experiment [8], 0.54 µM; in experiment [9] it was 0.235 µM; in experiment [10] it was 0.114 µM. The TGI in [1], in experiment [2], in [3], in experiment [4], in experiment [5] and in [6] was > 100 µM throughout. Also, the TGI in [7], in experiment [8], in [9] and in experiment [10] was > 100 µM each time.

Regarding `O=C(Nc1ccc(Nc2ccncc2)cc1)c1ccc([N+](=O)[O-])cc1`, the GI50 was 11.6 µM in experiment [1]; 8.87 µM in experiment [2]; 4.95 µM in [3]; 4.43 µM in [4]; 13.7 µM in [5]; 3.61 µM in [6]. Further, the GI50 is 14.2 µM in experiment [7], 1.93 µM in experiment [8], 3.3 µM in [9] and 2.49 µM in experiment [10]. In addition, the TGI is 28.2 µM in [1]; 42 µM in experiment [2]; > 40.6 µM in experiment [3]; > 24.6 µM in experiment [4]; 29 µM in [5]; 16.5 µM in [6]. Besides, the TGI in experiment [7] was > 62.5 µM; in experiment [8], 3.76 µM; in experiment [9] it was 20 µM; in experiment [10] it was 7.12 µM.

As to `Cc1ccc(S(=O)(=O)Nc2ccccc2C=O)cc1`, the TGI is 58.8 µM in [1]; > 100 µM in experiment [2]; 31.6 µM in experiment [3]; 27.6 µM in experiment [4]; 85 µM in [5]; 49.3 µM in [6]. Further, the TGI was 59 µM in [7], 60.1 µM in [8], 72.7 µM in experiment [9] and 30.2 µM in [10].

`CCN(CC)CCC(CNc1ccnc2cc(Cl)ccc12)c1ccc(Cl)cc1` (stereo unspecified): the GI50 in experiment [1] was 1.73 µM; in experiment [2], 5.44 µM; in experiment [3], 1.05 µM; in experiment [4], 1.34 µM; in experiment [5] it was 1.78 µM; in [6], 0.282 µM. Besides, the GI50 in experiment [7] is 2.06 µM; in experiment [8], 1.96 µM; in experiment [9] it was 1.92 µM; in experiment [10] it was 1.37 µM. Also, the TGI in [1] was determined as 3.4 µM; in experiment [2], 17.7 µM; in experiment [3], 4.89 µM; in experiment [4], 3.94 µM; in [5] it was 5.9 µM; in [6], 1.49 µM. The TGI was found to be 8.65 µM in [7], 5.98 µM in experiment [8], 4.21 µM in [9] and 2.85 µM in experiment [10].

Consider `S=C(Nc1ccc(Cl)cc1)Nc1ccc(-c2nc3ccccc3s2)cc1`, for which the GI50 is 26.3 µM in experiment [1]; 13.6 µM in experiment [2]; 23.5 µM in experiment [3]; 8.22 µM in [4]; 20.1 µM in [5]; 17.2 µM in [6]. Moreover, the GI50 is 17.5 µM in [7], 9.93 µM in experiment [8], 5.19 µM in experiment [9] and 19 µM in experiment [10]. The TGI was 61.5 µM in experiment [1]; 30 µM in experiment [2]; > 100 µM in [3]; > 100 µM in [4]; 41 µM in experiment [5]; 39.2 µM in experiment [6]. For the same compound, the TGI in [7] is 36.6 µM; in [8], 34.1 µM; in [9], 38.9 µM; in [10], > 100 µM.

For the compound `COc1cc(-c2oc(=O)ccc2C#Cc2ccccn2)cc(OC)c1OC`, the GI50 in [1] is 4.42 µM; in experiment [2] it was 3.48 µM; in experiment [3], 1.54 µM; in [4] it was 2.14 µM; in experiment [5], 2.42 µM; in experiment [6], 0.607 µM. Also, the GI50 in experiment [7] is 1.09 µM; in experiment [8], 0.733 µM; in [9] it was 3.46 µM; in experiment [10] it was 3.51 µM. For the same compound, the TGI is > 100 µM in [1]; > 29.5 µM in experiment [2]; > 100 µM in experiment [3]; 6.4 µM in [4]; > 100 µM in experiment [5]; > 21 µM in [6]. Besides, the TGI was 2.76 µM in experiment [8], > 41.8 µM in experiment [9] and > 86 µM in [10].
